Each compound was assayed against Glutamate NMDA receptor (assay: Concentration required to inhibit 50% of the specific binding of [3H]glycine to NMDA receptor prepared from rat cerebral cortex and hippocampus).
Type: tissue-based

Row | Compound | IC50 [µM]
1 | O=C(O)[C@@H]1C[C@H](C(=O)O)c2c(Cl)cc(Cl)cc2N1 | 31.4
2 | COC(=O)[C@H]1C[C@@H](C(=O)O)Nc2cc(Cl)ccc21 | 5.02
3 | NC(=O)[C@H]1C[C@@H](C(=O)O)Nc2cc(Cl)cc(Cl)c21 | 3.44
4 | NC(=O)[C@H]1C[C@H](C(=O)O)Nc2cc(Cl)cc(Cl)c21 | 0.72
5 | Cc1cc(C)c2c(c1)NC(C(=O)O)CC2=O (configuration not stated) | 1.86
6 | COC(=O)C[C@H]1C[C@H](C(=O)O)Nc2cc(Cl)cc(Cl)c21 | 0.603
7 | O=C(O)C1CCc2c(Cl)cc(Cl)cc2N1 (configuration not stated) | 6.39
8 | COC(=O)[C@H]1C[C@@H](C(=O)O)Nc2cccc(Cl)c21 | 26.1
9 | O=C1CC(C(=O)O)Nc2cc(Cl)ccc21 (configuration not stated) | 2.36
10 | O=C1CC(C(=O)O)Nc2cccc(Cl)c21 (configuration not stated) | 6.96
11 | O=C(O)C[C@H]1C[C@@H](C(=O)O)Nc2cc(Cl)cc(Cl)c21 | 15
12 | Cc1cc(C)c2c(c1)N[C@@H](C(=O)O)[C@H](C)C2=O | > 100
13 | O=C1CC(C(=O)O)Nc2ccccc21 (configuration not stated) | > 100
14 | COC(=O)[C@H]1C[C@H](C(=O)O)Nc2cc(Br)cc(Br)c21 | 2.89
15 | COC(=O)[C@H]1C[C@H](C(=O)O)Nc2cc(Cl)cc(Cl)c21 | 2.47
16 | O=C(O)[C@H]1C[C@H](C(=O)O)Nc2cc(Cl)cc(Cl)c21 | 20
17 | COC(=O)[C@H]1C[C@H](C(=O)O)Nc2cccc(Cl)c21 | 176
18 | COC(=O)[C@H]1C[C@@H](C(=O)O)Nc2cc(Cl)cc(I)c21 | 4.18
19 | COC(=O)[C@H]1C[C@@H](C(=O)O)Nc2cc(Cl)cc(Cl)c21 | 1.21

The remaining lines, values ahead:

Row | IC50 [µM] | Compound
20 | 3.09 | COC(=O)[C@H]1C[C@H](C(=O)O)Nc2cc(Cl)cc(I)c21
21 | 2.33 | O=C(O)[C@@H]1C[C@H](C(=O)OCc2ccccc2)c2c(Cl)cc(Cl)cc2N1
22 | 0.134 | O=C(O)C[C@H]1C[C@H](C(=O)O)Nc2cc(Cl)cc(Cl)c21
23 | 1.05 | O=C(OCc1ccccc1)[C@H]1C[C@H](C(=O)O)Nc2cc(Cl)cc(Cl)c21
24 | 2.53 | Cc1noc(C[C@H]2C[C@H](C(=O)O)Nc3cc(Cl)cc(Cl)c32)n1
25 | 13.7 | Cc1cc(C)c2c(c1)N[C@@H](C(=O)O)[C@@H](C)C2=O
26 | 3.84 | O=C1CC(C(=O)O)Nc2cc(I)cc(Cl)c21 (configuration not stated)
27 | 2.31 | O=C1CC(C(=O)O)Nc2cc(Cl)cc(Cl)c21 (configuration not stated)
28 | 16.9 | COC(=O)[C@H]1C[C@H](C(=O)O)Nc2cc(Cl)ccc21
29 | > 100 | O=C(O)c1cc(C(=O)O)c2c(Cl)cc(Cl)cc2n1
30 | 2.05 | COC(=O)[C@H]1C[C@@H](C(=O)O)Nc2cc(Br)cc(Br)c21
31 | 0.36 | O=C1CC(C(=O)O)Nc2cc(Cl)cc(I)c21 (configuration not stated)
32 | 1.29 | O=C1CC(C(=O)O)Nc2cc(Br)cc(Br)c21 (configuration not stated)

From ChEMBL document CHEMBL1126052, “2-Carboxytetrahydroquinolines. Conformational and stereochemical requirements for antagonism of the glycine site on the NMDA receptor” (J Med Chem, 1992)
